Experimental data: patent US20150320704A1, “COMPOSITIONS AND METHODS FOR TREATMENT OF HAIR LOSS” (DS Healthcare Group, Inc., priority 2014, published 2015)

Test system: male subjects experiencing active thinning-hair
Test: Hair regrowth study, double blind, daily topical application for 90 days
Format: in vivo, human
Settings: Example 2: study of Example 1 repeated, formulation of vehicle and one pimarene compound, lacking other pine resin compounds
Protocol: A double blind study was performed on male subjects between the ages of 25 and 55 years who had been experiencing active thinning-hair. […] A global photograph of each subject was taken from the crown area and a second photograph was taken of the top of the head to track frontal areas. […] In addition to the pimarene compounds, the formulations contained pine resin compounds that are not calcium channel opening agents, including abietic acid, neoabietic acid, dehydroabietic acid, and palustric acid. The target sites of each subject were monitored over the 90 day period and photographs were again obtained at the end of this period and compared to those at baseline.
The formulation lacks a pine resin compound other than a pimarene compound.

| Compound | hair thickness and growth, outcome of treatment |
| --- | --- |
| CC[C@@]1(C)CC[C@H]2C(=CCC3[C@]2(C)CCC[C@]3(C)C(=O)O)C1 (some centres unmarked) [dihydroisopimaric acid] | improvement in hair thickness and growth in a majority of the subjects |
| CC[C@@]1(C)CC[C@H]2C(=CC[C@H]3[C@](C)(CO)CCC[C@]23C)C1 [dihydroisopimarinol] | improvement in hair thickness and growth in a majority of the subjects |
| C=C[C@@]1(C)CC[C@H]2C(=CC[C@@H]3[C@]2(C)CCC[C@@]3(C)C(=O)O)C1 [isopimaric acid] | improvement in hair thickness and growth in a majority of the subjects |
| C=C[C@@]1(C)C=C2CC[C@@H]3[C@](C)(CCC[C@@]3(C)C(=O)O)[C@H]2CC1 [pimaric acid] | improvement in hair thickness and growth in a majority of the subjects |
| C=C[C@]1(C)C=C2CC[C@@H]3[C@](C)(CCC[C@@]3(C)C(=O)O)[C@H]2CC1 [sandaracopimaric acid] | improvement in hair thickness and growth in a majority of the subjects |
| dihydropimaric acid | improvement in hair thickness and growth in a majority of the subjects |

Same assay, conditions: Example 3: study of Example 1 repeated, formulation of vehicle and a potassium channel opening agent other than pimarene compounds

| Compound | hair thickness and growth, outcome of treatment |
| --- | --- |
| COc1ccc(Cl)cc1[C@]1(F)C(=O)Nc2cc(C(F)(F)F)ccc21 [BIAS-204352] | improvement in hair thickness and growth in a majority of the subjects |
| FC(F)(F)C(Cl)Br (centres unmarked) [halothane] | improvement in hair thickness and growth in a majority of the subjects |
| CC(C(O)c1ccc(O)cc1)N1CCC(Cc2ccccc2)CC1 (centres unmarked) [ifenprodil] | improvement in hair thickness and growth in a majority of the subjects |

Test system: balding macaques
Test: not given
Settings: topical application, 20-week treatment period; cited from earlier work

| Compound | scalp hair growth |
| --- | --- |
| CCC(C)(C)N=C(NC#N)Nc1cccnc1 [P-1075] | stimulated hair growth |
| CNC(=S)[C@]1(c2cccnc2)CCCC[S+]1[O-] (some centres unmarked) [RP-49,356] | not effective in promoting hair growth |
| CC1(C)Oc2ccc(C#N)cc2C(N2CCCC2=O)C1O (centres unmarked) [cromakalin] | stimulated hair growth |

Test system: humans
Test: not given
Settings: cited from earlier work

| Compound | hypertrichosis |
| --- | --- |
| CC1=NS(=O)(=O)c2cc(Cl)ccc2N1 [diazoxide] | cause hypertrichosis |
| CC(N/C(=N\C#N)Nc1ccncc1)C(C)(C)C (centres unmarked) [pinacidil] | cause hypertrichosis |
